The target of the assay is T1, GSK-3α (Homo sapiens, UniProt P49840).
T1 construct: purchased Upstate Biotechnology USA
Description: GSK-3α kinase inhibition assay ([γ-32P]ATP phosphorylation of substrate). The class given is biochemical. As to conditions: 20 μM ATP.
Description: Protein kinases and substrates were purchased from Upstate Biotechnology USA, except for poly(Glu-Tyr 4:1) which was obtained from Sigma-Aldrich.
After 15 mins, the reaction was initiated by adding ATP to a final concentration of 20 μM, including approximately 0.04 μCi/μl [γ-^32P]ATP. Reactions were performed in a total volume of 25 μl. After 30 min, the reaction was terminated by spotting 17.5 μl on a circular P81 phosphocellulose paper (diameter 2.1 cm, Whatman) followed by washing four times (five minutes each wash) with 0.75% phosphoric acid and once with acetone. The dried P81 papers were transferred to a scintillation vial and 5 ml of scintillation cocktail were added and the counts per minute (CPM) determined with a Beckmann 6000 scintillation counter.

T1 sequence (P49840 whole entry): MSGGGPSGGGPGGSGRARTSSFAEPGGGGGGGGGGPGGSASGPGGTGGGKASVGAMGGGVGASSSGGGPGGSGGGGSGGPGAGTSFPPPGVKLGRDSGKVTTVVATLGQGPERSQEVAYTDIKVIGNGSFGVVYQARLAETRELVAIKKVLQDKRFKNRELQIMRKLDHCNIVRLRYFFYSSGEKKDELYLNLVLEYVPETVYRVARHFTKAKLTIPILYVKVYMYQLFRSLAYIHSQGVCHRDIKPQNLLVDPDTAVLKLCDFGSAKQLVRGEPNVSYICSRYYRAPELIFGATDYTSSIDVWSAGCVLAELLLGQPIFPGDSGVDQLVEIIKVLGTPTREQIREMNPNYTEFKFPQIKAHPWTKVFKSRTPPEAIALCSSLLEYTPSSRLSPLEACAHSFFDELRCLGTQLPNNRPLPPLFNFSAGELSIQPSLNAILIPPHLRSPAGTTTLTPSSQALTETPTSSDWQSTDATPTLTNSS

The term IC50 denotes the point on the concentration scale where inhibition reaches its midpoint. A low value points to higher potency. Take `O=C1NC(=O)c2c1c1cccnc1c1[nH]c3ccccc3c21` [Compound 4]: it took 50 µM to reach half-maximal inhibition (IC50).

For the origin of these results see patent US8080660B2, “Metal complex glycogen synthase kinase 3 inhibitors” (The Trustees Of The University Of Pennsylvania, priority 2004, dated 2011).
